Source: ChEMBL document CHEMBL1201862, “PubChem BioAssay data set” (2004)
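Tested at 5 concentrations; 48 h exposure; 96-well plates; endpoints linearly interpolated, else capped at highest concentration. Here, GI50 denotes the concentration required for 50% inhibition of growth.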 Activity calls are given as the source filed them. Cut-off read from the data, not from the text of the source: active = GI50 up to about 1.1 µM and inactive = higher.

Key:
Test in all cases: NCI anticancer screen, dose series, 48 h
[1] = system: ACHN
[2] = system: COLO 205
[3] = system: HCT-116
[4] = system: HOP-62
[5] = system: KM12
[6] = system: MCF7
[7] = system: NCI-H226
[8] = system: NCI-H23
[9] = system: OVCAR-5
[10] = system: OVCAR-8
[11] = system: RXF 393
[12] = system: SF-295
[13] = system: SK-MEL-5
[14] = system: SK-OV-3
[15] = system: SW-620
[16] = system: TK-10
[17] = system: U-251
[18] = system: UO-31
[19] = system: HL-60
[20] = system: Malme-3M

SMILES | GI50 [1] | GI50 [2] | GI50 [3] | GI50 [4] | GI50 [5] | GI50 [6] | GI50 [7] | GI50 [8] | GI50 [9] | GI50 [10] | GI50 [11] | GI50 [12] | GI50 [13] | GI50 [14] | GI50 [15] | GI50 [16] | GI50 [17] | GI50 [18] | GI50 [19] | GI50 [20]
C1CSCCSCSCCS1 | > 100 µM (inactive) | > 100 µM (inactive) | > 100 µM (inactive) | > 100 µM (inactive) | > 100 µM (inactive) | > 100 µM (inactive) | > 100 µM (inactive) | > 100 µM (inactive) | > 100 µM (inactive) | > 100 µM (inactive) | > 100 µM (inactive) | > 100 µM (inactive) | > 100 µM (inactive) | > 100 µM (inactive) | > 100 µM (inactive) | > 100 µM (inactive) | > 100 µM (inactive) | > 100 µM (inactive) | – | –
C#Cc1cccc(N2C(=O)c3c(c(-c4ccccc4)c(-c4ccc(Cc5ccc(-c6c(-c7ccccc7)c7c(c(-c8ccccc8)c6-c6ccccc6)C(=O)N(c6cccc(C#C)c6)C7=O)cc5)cc4)c(-c4ccccc4)c3-c3ccccc3)C2=O)c1 | 15.9 µM (inactive) | 27 µM (inactive) | 21 µM (inactive) | 25.8 µM (inactive) | 25.6 µM (inactive) | – | – | 31.2 µM (inactive) | > 100 µM (inactive) | 31.5 µM (inactive) | 15.9 µM (inactive) | 37.8 µM (inactive) | 21.9 µM (inactive) | – | 33 µM (inactive) | 17.9 µM (inactive) | 33 µM (inactive) | 36.7 µM (inactive) | 22.3 µM (inactive) | 45 µM (inactive)
CC1CC[P+](c2ccccc2)(c2ccccc2)c2c1ccc1ccccc21 (stereo not given) | 9.62 µM (inactive) | – | 1.96 µM (inactive) | – | 1.59 µM (inactive) | 2.26 µM (inactive) | – | 1.57 µM (inactive) | 5.26 µM (inactive) | 1.84 µM (inactive) | 9.08 µM (inactive) | 3.5 µM (inactive) | 0.83 µM (active) | – | – | – | – | 15.9 µM (inactive) | 1.28 µM (inactive) | 5.96 µM (inactive)
CC(C)=CCC/C(C)=C/C=C/C(C)=C/C1C[C@@]2(C(O)O1)[C@H](CCCO)/C(=C(/C)C=O)CC[C@]2(C)O (stereo not given in full) | 11.6 µM (inactive) | 1.08 µM (active) | 20.2 µM (inactive) | – | – | – | 22.4 µM (inactive) | > 10 µM (inactive) | 40.8 µM (inactive) | 22 µM (inactive) | 18.6 µM (inactive) | 11.4 µM (inactive) | – | > 10 µM (inactive) | 10.4 µM (inactive) | 25.5 µM (inactive) | > 10 µM (inactive) | 17.3 µM (inactive) | 11.1 µM (inactive) | 4.59 µM (inactive)
Cc1ccc(NC(=O)OCC(COc2ccc(Cl)cc2)OC(=O)Nc2ccc(C)cc2)cc1 (stereo not given) | 20.7 µM (inactive) | 39.6 µM (inactive) | 20.7 µM (inactive) | 26.6 µM (inactive) | 23 µM (inactive) | – | 16.5 µM (inactive) | 25.9 µM (inactive) | 27.9 µM (inactive) | 81.3 µM (inactive) | 12.9 µM (inactive) | 23.5 µM (inactive) | 24.5 µM (inactive) | 58.6 µM (inactive) | 17.1 µM (inactive) | 12.4 µM (inactive) | 28.4 µM (inactive) | 11.9 µM (inactive) | 0.938 µM (active) | 19 µM (inactive)
COc1ccc(-c2nc3ccc([N+](=O)[O-])cc3c(=O)[nH]2)cc1 | – | > 100 µM (inactive) | 27.4 µM (inactive) | > 45.6 µM (inactive) | > 100 µM (inactive) | 46.5 µM (inactive) | 23.2 µM (inactive) | 29.3 µM (inactive) | > 100 µM (inactive) | 21.1 µM (inactive) | 26.4 µM (inactive) | 23.8 µM (inactive) | > 100 µM (inactive) | 13.6 µM (inactive) | > 100 µM (inactive) | – | 24.6 µM (inactive) | 61.9 µM (inactive) | > 100 µM (inactive) | –
CCOC(=O)N1C=NC23C(c4ccccc4)C(c4ccccc4)C12C(=O)N(C)C(=O)N3C (stereo not given) | > 100 µM (inactive) | > 100 µM (inactive) | > 100 µM (inactive) | > 100 µM (inactive) | > 100 µM (inactive) | – | – | > 100 µM (inactive) | > 100 µM (inactive) | > 100 µM (inactive) | 16.3 µM (inactive) | > 100 µM (inactive) | > 100 µM (inactive) | > 100 µM (inactive) | > 100 µM (inactive) | > 100 µM (inactive) | > 100 µM (inactive) | 77.1 µM (inactive) | 56.1 µM (inactive) | > 100 µM (inactive)
c1cncc(O[Si](Oc2cccnc2)(Oc2cccnc2)Oc2cccnc2)c1 | – | > 100 µM (inactive) | – | – | > 100 µM (inactive) | – | > 100 µM (inactive) | > 100 µM (inactive) | > 100 µM (inactive) | > 100 µM (inactive) | > 100 µM (inactive) | > 100 µM (inactive) | > 100 µM (inactive) | > 100 µM (inactive) | > 100 µM (inactive) | > 100 µM (inactive) | > 100 µM (inactive) | > 100 µM (inactive) | – | > 100 µM (inactive)
CCCCNC(=O)N/C=C1\C(=O)Oc2ccccc2C1=O | 24.5 µM (inactive) | > 100 µM (inactive) | 43.9 µM (inactive) | 47.5 µM (inactive) | – | – | 32.7 µM (inactive) | 54.6 µM (inactive) | 68.5 µM (inactive) | 74.1 µM (inactive) | 15 µM (inactive) | – | > 100 µM (inactive) | – | 58.7 µM (inactive) | 79.4 µM (inactive) | – | 11.8 µM (inactive) | 22.1 µM (inactive) | –
Cn1c(=O)c(-c2ccccc2)c(N=[N+]=[N-])c2ccccc21 | 30.8 µM (inactive) | 44 µM (inactive) | 69.5 µM (inactive) | 45 µM (inactive) | 37.8 µM (inactive) | 54.3 µM (inactive) | 67 µM (inactive) | 38.7 µM (inactive) | > 100 µM (inactive) | 49.3 µM (inactive) | 80.2 µM (inactive) | 47.9 µM (inactive) | 53.2 µM (inactive) | > 100 µM (inactive) | 48.3 µM (inactive) | > 100 µM (inactive) | 34.8 µM (inactive) | 46.8 µM (inactive) | – | 30.9 µM (inactive)
N=S(=O)(c1ccccc1)c1ccccc1[N+](=O)[O-] (stereo not given) | > 100 µM (inactive) | > 100 µM (inactive) | > 100 µM (inactive) | > 100 µM (inactive) | > 100 µM (inactive) | – | > 100 µM (inactive) | > 100 µM (inactive) | > 100 µM (inactive) | > 100 µM (inactive) | > 100 µM (inactive) | > 100 µM (inactive) | > 100 µM (inactive) | > 100 µM (inactive) | > 100 µM (inactive) | > 100 µM (inactive) | > 100 µM (inactive) | > 100 µM (inactive) | > 100 µM (inactive) | > 100 µM (inactive)
